Experimental data taken from US20180010188A1, “METHOD FOR DETECTING NONSENSE-MEDIATED RNA DECAY” (The Regents of the University of California, priority 2016, published 2018).
“Also recorded” adds a separate entry of the source.

Assays:
[1] = test system: NMD and non-NMD isoforms of Srsf11, Ptbp2, Tra2b, Hnrnpl and Psd-95 (cellular NMD activity); assay: RT-qPCR of endogenous NMD and non-NMD isoforms to monitor cellular NMD activity; format: cell-based, mouse
Description: In our method, we measure the individual abundance of NMD-sensitive isoforms and that of their non-NMD counterparts via quantitative real-time PCR (qPCR). The NMD isoforms are first examined for differential expression between a treatment and a control condition. An increase in a NMD isoform may be due to NMD inhibition, transcriptional activation or a change in alternative splicing favoring the NMD isoform. These three scenarios can be distinguished by examining the expression of the non-NMD counterparts. Genuine NMD regulation, transcriptional activation and alternative splicing regulation would lead to no change, upregulation and down-regulation of the NMD-insensitive isoforms, respectively (FIG. 6A).
One technical difficulty of our method is designing RT-qPCR primers specific to the cassette exon-skipping isoform, whose entire sequence is contained in the inclusion isoform. To specifically detect an inclusion isoform, we designed a primer entirely annealing to the cassette exon (exon B in FIG. 1A). For the exclusion isoform, junction primers annealing to the exon-skipping junction appear to be the only choices. This can be either a reverse primer (FIG. 1A) with its 5′ portion matching the downstream constitutive exon (exon C) and its 3′ portion matching the upstream constitutive exon (exon A) or a forward primer (not shown) with its 5′ and 3′ portions matching the upstream and downstream exons, respectively. The challenge is herein illustrated with reverse primers but also applies to forward primers. Many exon-skipping junction primers are able to amplify the inclusion isoforms (FIGS. 7A-D). The longer the 3′ portion of the junction primer annealing to the upstream constitutive exon, the easier the primer amplifies the inclusion transcripts (FIG. 7B). Some exon-skipping junction primers with 3′ portions as short as six nucleotides, as we've observed, can still anneal to and detect the inclusion isoform at 55-60° C., albeit at a lower efficiency than its detection of the exclusion isoform. On the other hand, a longer 5′ portion and a shorter 3′ portion increase the possibility of the primer annealing to the exon B-exon C junction because of the sequence similarity around 5′ splice sites (FIGS. 7C-D). We therefore had to identify NMD-associated cassette exons containing a 3′ end unlike that of its upstream exon. We then screened multiple exon-skipping junction primers for one that amplified only the exclusion isoform and not the inclusion isoform. All primer pairs were tested and confirmed for their specificity, RT-qPCR efficiency and linear dynamic ranges (FIG. 10). Finally, two stably expressed housekeeping genes, Gapdh and Sdha, were used as internal controls for normalization by geometric averaging (Vandesompele et al., 2002. Genome Biol 3: RESEARCH0034).
Because our method can be used on its own can to infer NMD regulation with a low false positive rate, one of its applications is unbiased screening for changes in cellular NMD activity. We screened a small panel of widely used pharmacological inhibitors for their effects on NMD. The expression of both the NMD and non-NMD isoforms of Ptbp2, Srsf11, Tra2b, Hnrnpl and Psd-95 were simultaneously measured before and after drug treatment. When the levels of all of the NMD isoforms were altered by a chemical in the same direction, the expression of the NMD and non-NMD isoforms under the treatment and control conditions was then subjected to ANOVA analysis to determine differential regulation of the two isoforms. We were interested in drugs that affected the NMD isoforms across the board and more strongly than the non-NMD counterparts. With this criterion, we identified thapsigargin as having potent activity in blocking cellular NMD.
Neuro-2a (N2a) cells were maintained in N2a complete media consisting of L-glutamine-free Dulbecco's modified Eagle's medium (DMEM), 10% FBS and 1× GlutaMAX at 37° C. […]

[2] = test system: immediate early genes c-fos, c-Jun and Pip92; assay: RT-qPCR of immediate early genes; format: cell-based, mouse
Description: We then examined whether an increase in intracellular Ca^2+ is sufficient to inhibit NMD. We applied a wide dose range of ouabain, a cardiac glycoside used by Nickless et al., and measured the abundance of both NMD and non-NMD isoforms at various time-points. […] To further test whether increased intracellular Ca^2+ was sufficient to inhibit NMD, we treated the cells with ionomycin, a Ca^2+ ionophore, as another method of raising the cytoplasmic Ca^2+ concentration.
Neuro-2a (N2a) cells were maintained in N2a complete media consisting of L-glutamine-free Dulbecco's modified Eagle's medium (DMEM), 10% FBS and 1× GlutaMAX at 37° C. Thapsigargin (VWR, cat. no. 89161-410), ionomycin (Fisher Scientific, cat. no. AG-CN2-0416-M001) and ouabain octahydrate (Fisher Scientific, cat. no. 80055-364) were dissolved in DMSO and stored at −80° C. For the application of these chemicals, 750,000 cells were plated on 35 mm BioLite TC plates and incubated with 2 ml of N2a complete media overnight before treatment with the drugs at the indicated concentrations. […]
Trizol (Life Technologies, cat. no. 15596-018) was directly added to the cells or mouse brain tissues to extract total RNA following the Trizol Reagent standard protocol. […] RNA concentrations were measured using a Nanodrop 2000c (Thermo Fisher). […] Relative expression (fold changes) was calculated using the ΔΔCt method. […]

Row | Structure (SMILES) | levels of the NMD isoforms ([1]; 1 to 100 μM) | expression of immediately early genes c-Jun and Pip92 ([2]; ionomycin treatment) | NMD isoforms at high concentration ([1]; 200 or 400 μM) | changes in cellular NMD activity ([1]; wide dose range, various time-points, N2a cells) | immediate early genes c-fos and Pip92 ([2]; 200 or 400 μM, N2a cells)
1 | C[C@H](CCC(=O)O)C[C@H](C)C[C@H](C)C(=O)/C=C(\O)[C@H](C)C[C@H](C)C/C=C/[C@@H](C)[C@@H](O)[C@@H](C)[C@@H](O)C[C@@H]1CC[C@@](C)([C@H]2CC[C@@](C)([C@@H](C)O)O2)O1 [ionomycin] | did not alter | increased expression | – | – | –
2 | C[C@@H]1O[C@@H](O[C@H]2C[C@@H](O)[C@]3(CO)[C@H]4[C@H](O)C[C@]5(C)[C@@H](C6=CC(=O)OC6)CC[C@]5(O)[C@@H]4CC[C@]3(O)C2)[C@H](O)[C@H](O)[C@H]1O [ouabain] | – | – | not substantially enhanced | only minimal changes; also recorded: did not unequivocally affect NMD activity | clearly stimulated; also recorded: clearly induced
